Reference: PMC12795810 (Nature Communications, 2025)

Legend:
[1] = cited from earlier work
[2] = when combined with letrozole/abemaciclib

CN(C)C(=N)N=C(N)N [metformin]
recommended maximum concentration for safe clinical use [1]: 2500 µg/L | increase in metformin exposure [2]: more than 3 fold
